The inhibition is the drop in the measured response relative to a control, in per cent.

Active and inactive are the calls of the source. No cut-off for these calls is given here.

For test [1], the target named is Chitotriosidase-1 (Mus musculus) (UniProt Q9D7Q1). As to the kind of experiment: Inhibition of chitinase in mouse BALF at 1 ug using 4-MU-(GlcNAc)2 substrate as substrate after 15 mins relative to control.
The target in test [2] is 3',5'-cyclic-AMP phosphodiesterase 4D (Homo sapiens) (UniProt Q08499). As to the kind of experiment: Inhibition of PDE4D2 (unknown origin) at 10 uM relative to control.
3',5'-cyclic-AMP phosphodiesterase 4D (Homo sapiens), sequence (Q08499 whole entry): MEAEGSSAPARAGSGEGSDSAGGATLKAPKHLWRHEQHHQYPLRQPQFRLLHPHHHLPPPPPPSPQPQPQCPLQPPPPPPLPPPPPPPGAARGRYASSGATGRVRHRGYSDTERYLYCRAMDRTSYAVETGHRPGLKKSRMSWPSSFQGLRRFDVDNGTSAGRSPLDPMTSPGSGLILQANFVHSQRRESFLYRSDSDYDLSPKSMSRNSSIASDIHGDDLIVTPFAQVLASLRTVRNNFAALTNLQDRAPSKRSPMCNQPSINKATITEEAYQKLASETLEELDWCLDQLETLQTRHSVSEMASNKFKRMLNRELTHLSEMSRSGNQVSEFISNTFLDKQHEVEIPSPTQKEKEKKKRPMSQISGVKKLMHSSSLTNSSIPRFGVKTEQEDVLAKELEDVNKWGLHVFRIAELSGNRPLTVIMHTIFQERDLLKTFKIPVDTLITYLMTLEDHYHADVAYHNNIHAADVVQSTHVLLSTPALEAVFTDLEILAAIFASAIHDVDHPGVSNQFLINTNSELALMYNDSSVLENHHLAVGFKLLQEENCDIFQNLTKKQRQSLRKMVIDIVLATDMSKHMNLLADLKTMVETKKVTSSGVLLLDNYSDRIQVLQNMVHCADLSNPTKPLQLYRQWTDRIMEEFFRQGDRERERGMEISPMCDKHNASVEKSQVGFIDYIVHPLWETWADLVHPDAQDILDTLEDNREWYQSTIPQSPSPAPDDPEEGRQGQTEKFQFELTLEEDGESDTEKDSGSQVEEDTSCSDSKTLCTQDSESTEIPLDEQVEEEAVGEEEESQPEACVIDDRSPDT
The test system of test [3] is Mus musculus. As to the kind of experiment: Antifibrotic activity in bleomycin-induced C57BL/6 mouse model of pulmonary fibrosis assessed as increase in number of PDL2+ alveolar macrophages in lungs at 2 ug/mouse, ip administered for 11 days and measured on day 12 post treatment by flow cytometric analysis. The format is functional, organism-based. For orientation: Flow cytometry measures light scatter and fluorescence of single cells or particles in a stream.

In test [4] the test system is Mus musculus. The experiment in a line: Antifibrotic activity in bleomycin-induced C57BL/6 mouse model of pulmonary fibrosis assessed as effect on Chit1 expression at 2 ug/mouse, ip administered for 11 days and measured on day 12 post treatment by RT-qPCR analysis. The test is classed as functional, organism-based. In general terms: Real-time PCR tracks product formation cycle by cycle.

Test [5] relates to Mus musculus. As to the kind of experiment: Antifibrotic activity in bleomycin-induced C57BL/6 mouse model of pulmonary fibrosis assessed as increase in number of interstitial macrophages in lungs at 2 ug/mouse, ip administered for 11 days and measured on day 12 post treatment by flow cytometric analysis. The test is classed as functional, organism-based.
In test [6] the target is Chitotriosidase-1 (Mus musculus) (UniProt Q9D7Q1). The experiment in a line: Inhibition of chitinase in mouse BALF at 40 ug using 4-MU-(GlcNAc)2 substrate as substrate after 15 mins relative to control.
The target of test [7] is Acidic mammalian chitinase (Homo sapiens, UniProt Q9BZP6). The experiment in a line: Inhibition of human acidic mammalian chitinase catalytic domain overexpressed in Pichia pastoris at 10 uM using 4MU-(GlcNAc)2 as substrate after 30 mins by fluorescence based microplate reader analysis.
Acidic mammalian chitinase, sequence (Q9BZP6 22-476 limits assumed): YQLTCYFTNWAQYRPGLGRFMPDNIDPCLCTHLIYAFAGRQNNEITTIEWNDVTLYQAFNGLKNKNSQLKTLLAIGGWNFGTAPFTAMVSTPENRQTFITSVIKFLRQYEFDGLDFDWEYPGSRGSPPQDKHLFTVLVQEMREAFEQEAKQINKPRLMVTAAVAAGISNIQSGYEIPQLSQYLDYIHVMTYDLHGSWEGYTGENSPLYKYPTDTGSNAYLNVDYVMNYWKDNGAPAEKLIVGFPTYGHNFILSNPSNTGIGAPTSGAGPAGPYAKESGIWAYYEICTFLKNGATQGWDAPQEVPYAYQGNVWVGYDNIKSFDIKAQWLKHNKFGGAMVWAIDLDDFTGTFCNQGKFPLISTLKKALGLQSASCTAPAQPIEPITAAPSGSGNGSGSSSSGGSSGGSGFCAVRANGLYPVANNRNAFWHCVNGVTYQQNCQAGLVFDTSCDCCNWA
Test [8] has as its target Chitinase (Ostrinia furnacalis) (UniProt Q4AE59). As to the kind of experiment: Inhibition of Ostrinia furnacalis chitinase h catalytic domain overexpressed in Pichia pastoris at 1 uM using 4MU-(GlcNAc)2 as substrate after 30 mins by fluorescence based microplate reader analysis.
Test [9] deals with Mus musculus. As to the kind of experiment: Antifibrotic activity in bleomycin-induced C57BL/6 mouse model of pulmonary fibrosis assessed as effect on IL13 expression at 2 ug/mouse, ip administered for 11 days and measured on day 12 post treatment by RT-qPCR analysis. The format is functional, organism-based.
Test [10] deals with Mus musculus. As to the kind of experiment: In vivo inhibition of human chitinase in C57BL/6 mouse assesed as reduction in bleomycin-induced chitinase level in BALF at 2 ug/mouse, ip administered for 11 days and measured on day 12 by necropsy analysis. The test is classed as functional.
Test [11] deals with Mus musculus. The experiment in a line: Antifibrotic activity in bleomycin-induced C57BL/6 mouse model of pulmonary fibrosis assessed as effect on Areg expression at 2 ug/mouse, ip administered for 11 days and measured on day 12 post treatment by RT-qPCR analysis. The format is functional, organism-based.
For test [12], the target named is T1, Chitinase B (Serratia marcescens) (UniProt P11797).
T1 sequence (whole entry): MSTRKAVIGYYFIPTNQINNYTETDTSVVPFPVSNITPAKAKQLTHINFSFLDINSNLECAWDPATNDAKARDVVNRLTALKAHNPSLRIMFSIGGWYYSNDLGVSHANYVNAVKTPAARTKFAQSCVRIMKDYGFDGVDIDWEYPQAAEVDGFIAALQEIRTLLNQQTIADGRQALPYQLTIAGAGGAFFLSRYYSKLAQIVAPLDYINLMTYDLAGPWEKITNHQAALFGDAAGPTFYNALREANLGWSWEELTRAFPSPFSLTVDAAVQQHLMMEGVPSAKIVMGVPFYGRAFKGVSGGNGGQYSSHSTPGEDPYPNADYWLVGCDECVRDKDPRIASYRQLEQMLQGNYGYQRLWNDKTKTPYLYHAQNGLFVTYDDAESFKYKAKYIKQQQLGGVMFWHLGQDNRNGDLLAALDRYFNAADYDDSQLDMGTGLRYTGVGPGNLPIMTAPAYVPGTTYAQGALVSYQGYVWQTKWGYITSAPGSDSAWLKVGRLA
The experiment in a line: Inhibition of Serratia marcescens chitinase b catalytic domain overexpressed in Escherichia coli BL21(DE3) cells at 1 uM using 4MU-(GlcNAc)2 as substrate after 30 mins by fluorescence based microplate reader analysis.

Test [13] has as its system Mus musculus. As to the kind of experiment: Antifibrotic activity in bleomycin-induced C57BL/6 mouse model of pulmonary fibrosis assessed as effect on IL33 expression at 2 ug/mouse, ip administered for 11 days and measured on day 12 post treatment by RT-qPCR analysis. The test is classed as functional, organism-based.
Test [14] concerns Mus musculus. As to the kind of experiment: Antifibrotic activity in bleomycin-induced C57BL/6 mouse model of pulmonary fibrosis assessed as increase in number of monocytes in lungs at 2 ug/mouse, ip administered for 11 days and measured on day 12 post treatment by flow cytometric analysis. The format is functional, organism-based.
The test system of test [15] is Mus musculus. The experiment in a line: Antifibrotic activity in bleomycin-induced C57BL/6 mouse model of pulmonary fibrosis assessed as effect on IL5 expression at 2 ug/mouse, ip administered for 11 days and measured on day 12 post treatment by RT-qPCR analysis. The format is functional, organism-based.
In test [16] the test system is Mus musculus. The experiment in a line: Antifibrotic activity in bleomycin-induced C57BL/6 mouse model of pulmonary fibrosis assessed as effect on TGFbeta expression at 2 ug/mouse, ip administered for 11 days and measured on day 12 post treatment by RT-qPCR analysis. The test is classed as functional, organism-based.
For a further test, the target named is Chitotriosidase-1 (Homo sapiens, UniProt Q13231). As to the kind of experiment: Inhibition of human CHIT1 catalytic domain overexpressed in Pichia pastoris at 10 uM using 4MU-(GlcNAc)2 as substrate after 30 mins by fluorescence based microplate reader analysis.
Chitotriosidase-1, sequence (Q13231 22-466 limits assumed): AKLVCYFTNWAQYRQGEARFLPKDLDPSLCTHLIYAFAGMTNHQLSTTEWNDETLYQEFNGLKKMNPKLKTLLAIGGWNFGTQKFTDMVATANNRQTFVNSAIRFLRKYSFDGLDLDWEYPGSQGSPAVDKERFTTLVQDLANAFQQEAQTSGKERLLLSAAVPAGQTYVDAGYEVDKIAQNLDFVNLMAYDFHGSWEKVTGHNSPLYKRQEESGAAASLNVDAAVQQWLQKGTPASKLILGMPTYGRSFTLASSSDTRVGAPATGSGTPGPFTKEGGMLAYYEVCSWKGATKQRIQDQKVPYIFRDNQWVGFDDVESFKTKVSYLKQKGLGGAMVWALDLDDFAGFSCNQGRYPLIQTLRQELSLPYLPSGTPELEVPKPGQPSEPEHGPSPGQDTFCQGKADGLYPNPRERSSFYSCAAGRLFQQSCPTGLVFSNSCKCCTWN

Chitotriosidase-1 (Mus musculus), sequence (Q9D7Q1 22-464 limits assumed): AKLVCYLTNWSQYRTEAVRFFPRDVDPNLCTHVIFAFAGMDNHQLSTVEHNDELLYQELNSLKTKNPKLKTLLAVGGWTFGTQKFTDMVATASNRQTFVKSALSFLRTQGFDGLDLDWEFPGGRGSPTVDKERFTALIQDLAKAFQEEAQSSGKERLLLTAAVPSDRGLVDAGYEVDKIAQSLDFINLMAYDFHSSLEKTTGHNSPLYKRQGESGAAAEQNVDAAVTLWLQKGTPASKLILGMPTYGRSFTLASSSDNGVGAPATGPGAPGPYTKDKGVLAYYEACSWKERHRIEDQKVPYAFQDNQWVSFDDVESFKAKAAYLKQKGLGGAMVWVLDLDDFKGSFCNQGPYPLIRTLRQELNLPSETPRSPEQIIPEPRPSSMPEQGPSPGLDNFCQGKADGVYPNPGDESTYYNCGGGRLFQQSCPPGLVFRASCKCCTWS
Chitinase (Ostrinia furnacalis), sequence (Q4AE59 as listed by the source): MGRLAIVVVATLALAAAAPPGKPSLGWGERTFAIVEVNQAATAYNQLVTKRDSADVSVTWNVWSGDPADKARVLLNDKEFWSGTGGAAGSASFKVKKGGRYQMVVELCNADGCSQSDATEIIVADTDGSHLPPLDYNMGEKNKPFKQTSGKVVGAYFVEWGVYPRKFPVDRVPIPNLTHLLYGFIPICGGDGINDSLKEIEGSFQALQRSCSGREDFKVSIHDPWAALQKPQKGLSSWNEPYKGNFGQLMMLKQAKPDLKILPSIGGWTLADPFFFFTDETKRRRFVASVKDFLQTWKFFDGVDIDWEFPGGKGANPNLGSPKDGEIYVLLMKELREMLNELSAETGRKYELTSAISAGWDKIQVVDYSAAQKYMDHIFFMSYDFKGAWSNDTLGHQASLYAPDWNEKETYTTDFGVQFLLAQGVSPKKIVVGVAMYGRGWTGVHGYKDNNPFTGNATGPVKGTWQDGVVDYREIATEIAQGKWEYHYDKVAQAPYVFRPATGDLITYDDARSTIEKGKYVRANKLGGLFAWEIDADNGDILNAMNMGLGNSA

For the compound `CC(NC(=O)c1cc2c(=O)n3ccccc3nc2n(Cc2ccccc2)c1=N)c1ccccc1` (configuration not stated), the inhibition is 35% in test [1], 87.8% in test [2] and 55% in test [6]. The outcome with Mus musculus [3], in the test on Mus musculus [5], with Mus musculus [9] and in the test with Mus musculus [14] was Active. For the same compound, the outcome in the test with Mus musculus [4], in the test with Mus musculus [11], with Mus musculus [13], in the test on Mus musculus [15] and in the test with Mus musculus [16] was inactive. In addition, the inhibition entry (in test [7]; in [8]; in [12]; at Chitotriosidase-1) was “Active” each time. The “inhibition (INH)” value in the test on Mus musculus [10] was found to be 100%.
